Data as given in ChEMBL document CHEMBL6153150, “Design, Synthesis, and Biological Evaluation of Chiral-Proline Derivatives as Novel HSP90 Inhibitors” (ACS Med Chem Lett, 2025).

How the values were obtained:
Heat shock protein HSP90 = Heat shock protein HSP90 (Homo sapiens, UniProt P07900+P08238); test: Binding affinity to Hsp90 (unknown origin) assessed as dissociation constant incubated for 30 mins by fluorescence spectrophotometric analysis; format: protein assay
K562 = test: Antiproliferative activity against human K562 cells assessed as cell viability inhibition rate incubated for 72 hr by MTT assay; format: functional, cell-based; conditions: K562, 72 h
HCT-116 = test: Antiproliferative activity against human HCT-116 cells assessed as cell viability inhibition rate incubated for 72 hr by MTT assay; format: functional, cell-based; conditions: HCT-116, 72 h
A549 = test: Antiproliferative activity against human A549 cells assessed as cell viability inhibition rate incubated for 72 hr by MTT assay; format: functional, cell-based; conditions: A549, 72 h
SK-BR-3 = test: Antiproliferative activity against human SK-BR-3 cells assessed as cell viability inhibition rate incubated for 72 hr by MTT assay; format: functional, cell-based; conditions: SK-BR-3, 72 h
MCF7 = test: Antiproliferative activity against human MCF7 cells assessed as cell viability inhibition rate incubated for 72 hr by MTT assay; format: functional, cell-based; conditions: MCF7, 72 h

SMILES | Kd (Heat shock protein HSP90) | IC50 (K562) | IC50 (HCT-116) | IC50 (A549) | IC50 (SK-BR-3) | IC50 (MCF7)
O=C(NCc1ccccc1Cl)[C@H]1C[C@H](c2ccccc2)CN1C(=O)c1cc(C2CC2)c(O)cc1O | 0.236 µM | 0.457 µM | 0.301 µM | 0.042 µM | 0.331 µM | 0.076 µM
CC(C)c1cc(C(=O)N2C[C@@H](c3ccccc3)C[C@@H]2C(=O)NCc2ccccc2F)c(O)cc1O | 0.231 µM | 0.631 µM | 0.376 µM | 0.071 µM | 0.462 µM | 0.087 µM
CC(C)c1cc(C(=O)N2C[C@@H](c3ccccc3)C[C@@H]2C(=O)N2CCCC2)c(O)cc1O | 2.033 µM | – | – | – | – | –
CC(C)c1cc(C(=O)N2C[C@@H](c3ccccc3)C[C@@H]2C(=O)NC(C)c2ccccc2)c(O)cc1O (some centres not stated) | 0.232 µM | 0.621 µM | 0.514 µM | 0.087 µM | 0.703 µM | 0.113 µM
COCCN1CCN(C(=O)[C@H]2C[C@H](c3ccccc3)CN2C(=O)c2cc(C(C)C)c(O)cc2O)CC1 | 0.637 µM | – | – | – | – | –
CC(C)c1cc(C(=O)N2C[C@@H](c3ccccc3)C[C@@H]2C(=O)N2CCN(C)CC2)c(O)cc1O | 2.31 µM | – | – | – | – | –
CCCCNC(=O)[C@H]1C[C@H](c2ccccc2)CN1C(=O)c1cc(C(C)C)c(O)cc1O | 1.873 µM | – | – | – | – | –
CC(C)c1cc(C(=O)N2C[C@@H](c3ccccc3)C[C@@H]2C(=O)N2CCN(Cc3ccccc3)CC2)c(O)cc1O | 1.033 µM | – | – | – | – | –
CC(C)c1cc(C(=O)N2C[C@@H](c3ccccc3)C[C@@H]2C(=O)NCCCn2ccnc2)c(O)cc1O | 1.376 µM | – | – | – | – | –
CCN(CC)CCNC(=O)[C@H]1C[C@H](c2ccccc2)CN1C(=O)c1cc(C(C)C)c(O)cc1O | 0.431 µM | – | – | – | – | –
CC(C)c1cc(C(=O)N2C[C@@H](c3ccccc3)C[C@@H]2C(=O)NC2CC2)c(O)cc1O | 1.213 µM | – | – | – | – | –
COCCN(CCOC)C(=O)[C@H]1C[C@H](c2ccccc2)CN1C(=O)c1cc(C2CC2)c(O)cc1O | 0.637 µM | 0.596 µM | 0.795 µM | 0.163 µM | 0.761 µM | 0.336 µM
CC(C)CNC(=O)[C@H]1C[C@H](c2ccccc2)CN1C(=O)c1cc(C2CC2)c(O)cc1O | 0.107 µM | 0.533 µM | 0.403 µM | 0.089 µM | 0.765 µM | 0.093 µM
CCOCCCNC(=O)[C@H]1C[C@H](c2ccccc2)CN1C(=O)c1cc(C2CC2)c(O)cc1O | 0.937 µM | 0.504 µM | 1.01 µM | 0.203 µM | 0.733 µM | 0.183 µM
CC(C)c1cc(C(=O)N2C[C@@H](c3ccccc3)C[C@@H]2C(=O)NC(C)C(C)C)c(O)cc1O (some centres not stated) | 0.345 µM | 0.566 µM | 0.637 µM | 0.13 µM | 0.738 µM | 0.185 µM
CCCNC(=O)[C@H]1C[C@H](c2ccccc2)CN1C(=O)c1cc(C(C)C)c(O)cc1O | 1.653 µM | – | – | – | – | –
O=C(NCc1ccc(F)cc1F)[C@H]1C[C@H](c2ccccc2)CN1C(=O)c1cc(C2CC2)c(O)cc1O | 0.157 µM | 0.378 µM | 0.272 µM | 0.054 µM | 0.256 µM | 0.037 µM
O=C(NCc1ccccn1)[C@H]1C[C@H](c2ccccc2)CN1C(=O)c1cc(C2CC2)c(O)cc1O | 0.057 µM | 0.876 µM | 0.263 µM | 0.067 µM | 0.351 µM | 0.047 µM
CCC1CCCCN1C(=O)[C@H]1C[C@H](c2ccccc2)CN1C(=O)c1cc(C(C)C)c(O)cc1O (some centres not stated) | 1.677 µM | – | – | – | – | –

SMILES | Kd (Heat shock protein HSP90) | IC50 (K562) | IC50 (HCT-116) | IC50 (A549) | IC50 (SK-BR-3) | IC50 (MCF7)
CC(C)C(C)NC(=O)[C@H]1C[C@H](c2ccccc2)CN1C(=O)c1cc(C2CC2)c(O)cc1O (some centres not stated) | 0.345 µM | 0.631 µM | 0.507 µM | 0.105 µM | 0.787 µM | 0.204 µM
CCCCN(C)C(=O)[C@H]1C[C@H](c2ccccc2)CN1C(=O)c1cc(C(C)C)c(O)cc1O | 1.637 µM | – | – | – | – | –
COc1ccc(C(C)NC(=O)[C@H]2C[C@H](c3ccccc3)CN2C(=O)c2cc(C(C)C)c(O)cc2O)cc1 (some centres not stated) | 0.463 µM | 0.533 µM | 0.652 µM | 0.172 µM | 0.721 µM | 0.17 µM
CC(C)OCCCNC(=O)[C@H]1C[C@H](c2ccccc2)CN1C(=O)c1cc(C(C)C)c(O)cc1O | 0.202 µM | – | – | – | – | –
CC(C)c1cc(C(=O)N2C[C@@H](c3ccccc3)C[C@@H]2C(=O)N2CCC(N3CCCCC3)CC2)c(O)cc1O | 0.983 µM | – | – | – | – | –
CC(C)c1cc(C(=O)N2C[C@@H](c3ccccc3)C[C@@H]2C(=O)NCC2CC2)c(O)cc1O | 0.354 µM | – | – | – | – | –
CCCN1CCN(C(=O)[C@H]2C[C@H](c3ccccc3)CN2C(=O)c2cc(C(C)C)c(O)cc2O)CC1 | 1.033 µM | – | – | – | – | –
CC(C)c1cc(C(=O)N2C[C@@H](c3ccccc3)C[C@@H]2C(=O)N(C)C2CCCCC2)c(O)cc1O | 1.762 µM | – | – | – | – | –
CC(C)c1cc(C(=O)N2C[C@@H](c3ccccc3)C[C@@H]2C(=O)NCc2ccccc2Cl)c(O)cc1O | 0.351 µM | 0.633 µM | 0.461 µM | 0.072 µM | 0.572 µM | 0.103 µM
CC(C)CNC(=O)[C@H]1C[C@H](c2ccccc2)CN1C(=O)c1cc(C(C)C)c(O)cc1O | 0.165 µM | 0.539 µM | 0.435 µM | 0.063 µM | 0.653 µM | 0.087 µM
CC(C)c1cc(C(=O)N2C[C@@H](c3ccccc3)C[C@@H]2C(=O)N2CCN(CC3CC3)CC2)c(O)cc1O | 0.862 µM | – | – | – | – | –
CC(C)c1cc(C(=O)N2C[C@@H](c3ccccc3)C[C@@H]2C(=O)NCc2ccccc2)c(O)cc1O | 0.087 µM | 0.471 µM | 0.303 µM | 0.039 µM | 0.267 µM | 0.061 µM
CC(C)c1cc(C(=O)N2C[C@@H](c3ccccc3)C[C@@H]2C(=O)NC2CCCC2)c(O)cc1O | 0.876 µM | – | – | – | – | –
CC(C)c1cc(C(=O)N2C[C@@H](c3ccccc3)C[C@@H]2C(=O)N2CCN(C(C)C)CC2)c(O)cc1O | 1.021 µM | – | – | – | – | –
O=C(c1ccc(O)cc1)N1Cc2ccccc2C1 | 4.3 µM | – | – | – | – | –
CCOCCNC(=O)[C@H]1C[C@H](c2ccccc2)CN1C(=O)c1cc(C(C)C)c(O)cc1O | 0.124 µM | – | – | – | – | –
CC(C)c1cc(C(=O)N2C[C@@H](c3ccccc3)C[C@@H]2C(=O)N2CCCCC2)c(O)cc1O | 1.337 µM | – | – | – | – | –
CCOCCCNC(=O)[C@H]1C[C@H](c2ccccc2)CN1C(=O)c1cc(C(C)C)c(O)cc1O | 1.098 µM | 0.707 µM | 1.13 µM | 0.203 µM | 0.933 µM | 0.231 µM
CC(C)CN(C)C(=O)[C@H]1C[C@H](c2ccccc2)CN1C(=O)c1cc(C(C)C)c(O)cc1O | 1.573 µM | – | – | – | – | –

SMILES | Kd (Heat shock protein HSP90) | IC50 (K562) | IC50 (HCT-116) | IC50 (A549) | IC50 (SK-BR-3) | IC50 (MCF7)
CC(C)c1cc(C(=O)N2C[C@@H](c3ccccc3)C[C@@H]2C(=O)N2CCC(OCC3CC3)CC2)c(O)cc1O | 1.632 µM | – | – | – | – | –
O=C(NCc1ccccc1F)[C@H]1C[C@H](c2ccccc2)CN1C(=O)c1cc(C2CC2)c(O)cc1O | 0.168 µM | 0.411 µM | 0.291 µM | 0.029 µM | 0.312 µM | 0.086 µM
O=C(NCc1ccccc1)[C@H]1C[C@H](c2ccccc2)CN1C(=O)c1cc(C2CC2)c(O)cc1O | 0.067 µM | 0.451 µM | 0.461 µM | 0.042 µM | 0.307 µM | 0.063 µM
COCCN(CCOC)C(=O)[C@H]1C[C@H](c2ccccc2)CN1C(=O)c1cc(C(C)C)c(O)cc1O | 0.783 µM | 0.703 µM | 0.731 µM | 0.301 µM | 0.877 µM | 0.375 µM
CC(C)c1cc(C(=O)N2C[C@@H](c3ccccc3)C[C@@H]2C(=O)NCc2ccc3ccccc3n2)c(O)cc1O | 0.432 µM | 0.531 µM | 0.537 µM | 0.078 µM | 0.634 µM | 0.087 µM
CC(C)c1cc(C(=O)N2C[C@@H](c3ccccc3)C[C@@H]2C(=O)NC2CCCCC2)c(O)cc1O | 1.076 µM | – | – | – | – | –
CC(C)c1cc(C(=O)N2C[C@@H](c3ccccc3)C[C@@H]2C(=O)N(C)C2CC2)c(O)cc1O | 1.871 µM | – | – | – | – | –
COCCNC(=O)[C@H]1C[C@H](c2ccccc2)CN1C(=O)c1cc(C(C)C)c(O)cc1O | 0.188 µM | – | – | – | – | –
CC(C)NC(=O)[C@H]1C[C@H](c2ccccc2)CN1C(=O)c1cc(C(C)C)c(O)cc1O | 1.237 µM | – | – | – | – | –
CCNC(=O)[C@H]1C[C@H](c2ccccc2)CN1C(=O)c1cc(C(C)C)c(O)cc1O | 1.132 µM | – | – | – | – | –
CCCCCNC(=O)[C@H]1C[C@H](c2ccccc2)CN1C(=O)c1cc(C(C)C)c(O)cc1O | 2.161 µM | – | – | – | – | –
CC(C)c1cc(C(=O)N2C[C@@H](c3ccccc3)C[C@@H]2C(=O)N(C)Cc2ccccc2)c(O)cc1O | 2.331 µM | – | – | – | – | –
CC(C)CCNC(=O)[C@H]1C[C@H](c2ccccc2)CN1C(=O)c1cc(C(C)C)c(O)cc1O | 0.645 µM | – | – | – | – | –
CCN(C(=O)[C@H]1C[C@H](c2ccccc2)CN1C(=O)c1cc(C(C)C)c(O)cc1O)C(C)C | 2.479 µM | – | – | – | – | –
CCCN(CCC)C(=O)[C@H]1C[C@H](c2ccccc2)CN1C(=O)c1cc(C(C)C)c(O)cc1O | 2.516 µM | – | – | – | – | –
CC(C)c1cc(C(=O)N2C[C@@H](c3ccccc3)C[C@@H]2C(=O)N2CCCCC2C)c(O)cc1O (some centres not stated) | 2.171 µM | – | – | – | – | –
CCN(C)C(=O)[C@H]1C[C@H](c2ccccc2)CN1C(=O)c1cc(C(C)C)c(O)cc1O | 1.873 µM | – | – | – | – | –
CC1CCCN(C(=O)[C@H]2C[C@H](c3ccccc3)CN2C(=O)c2cc(C(C)C)c(O)cc2O)C1 (some centres not stated) | 2.162 µM | – | – | – | – | –
CC(C)c1cc(C(=O)N2C[C@@H](c3ccccc3)C[C@@H]2C(=O)N2CCN(c3ncccn3)CC2)c(O)cc1O | 1.631 µM | – | – | – | – | –
